# In ChEMBL document CHEMBL3507680, “University of Dundee, Gates Library screen for HepG2 cell viability”:
# Test: Human HepG2 cell viability assay in 384 well format
# Type: toxicity, cell-based
# Set-up: dose 125 nL, time 70.5 hour; concentration not given beside the values
# Conditions: HepG2 cells, read-out: Inhibition
row,SMILES,cytotoxicity at 70.5 h
1,Cc1cc(CN2CC[C@H]3C(=O)N(c4ccsc4)CCO[C@H]3C2)no1,-9.15%
2,CCc1ccccc1OC1CN(C(=O)c2ccnc(OC)c2)C1,11.1%
3,COCC1CCN(CCOc2ccc(C#N)cc2OC)CC1,20.7%
4,CC(=O)c1c(C)nn(S(=O)(=O)c2ccc(C)c(C)c2)c1C,-0.468%
5,CN1CC[C@H]2CN(C(=O)COCc3nc4cc(F)ccc4[nH]3)C[C@H]21,20.4%
6,Cc1cn2c(n1)CCC(NC(=O)c1ccc(CS(C)(=O)=O)o1)C2 (centres undefined),-2.86%
7,Cn1ccnc1COc1ccc(CN2CCC(C(N)=O)CC2)cc1,-11.1%
8,COCCN(C)CC(=O)N1C[C@@H](NC(C)=O)[C@H](c2ccc(OC)cc2)C1,-17.6%
9,O=C(c1cccc(NCCOc2ccc(F)cc2)c1)N1CCOCC1,4.98%
10,CN(C)C(=O)CN1CCCN(CC2CCOc3ccccc3C2)CC1 (centres undefined),-11.2%
11,Cc1cnn(CC2CCCCN2c2nn3cc(C)nc3s2)c1 (centres undefined),21.1%
12,CC(C)c1nc(C2CCCN2C(=O)CN(C)Cc2ccccc2)no1 (centres undefined),11.3%
13,CCN(C)CC(C)Cn1cnc(-c2ccccc2)c1C (centres undefined),-15.1%
14,COc1ccc(S(=O)(=O)N2CCOC[C@H](Oc3cnccn3)C2)cc1,-0.146%
15,CCc1cc(N(C)CCC(O)c2ccccc2)n2nccc2n1 (centres undefined),30.6%
16,NC(=O)c1cc(C2CCCN(C(=O)CCc3ccsc3)C2)n[nH]1 (centres undefined),-2.62%
17,Cn1cc(CCC(=O)N2C[C@@H]3CC[C@H](C2)N(Cc2ccccn2)C3)cn1,-14%
18,CC(CNS(=O)(=O)c1cccc(Cl)c1)N1CCN(C)CC1 (centres undefined),-5.03%
19,COc1ccc(-c2noc(CN3CCCC3Cn3cccn3)n2)cc1 (centres undefined),-1.01%
20,COc1ccc(C)cc1C(C)NS(=O)(=O)c1ccc2c(c1)CCC(=O)N2 (centres undefined),8.83%
21,CNC(=O)C1CCN(c2ncnc3c2CCN(C(=O)C2CC2)C3)C1 (centres undefined),-5.76%
22,O=C(CCc1n[nH]c2c1CCCC2)N1C[C@@H]2CC[C@H](C1)N(CC1CC1)C2,-7.45%

row,SMILES,cytotoxicity at 70.5 h
1,O=C(CCc1nc2cccnc2[nH]1)NCc1cccnc1,0.275%
2,COc1ccc(CN2CC[C@H](c3nnc(-c4ccco4)o3)C2)cc1,23%
3,CCN(CC)C(=O)c1ccc(Cl)c(NC(=O)c2csnn2)c1,-10.1%
4,Nc1cccnc1N1CCC(c2ccccc2)CC1,25%
5,COc1cc2c(cc1CN1CCC3(CCCN(C)C3=O)C1)OCCO2 (centres undefined),-15.9%
6,Cc1nc(CN2CCC(N3CCN(C)C3=O)CC2)no1,18%
7,CN(Cc1ncnn1C)C(=O)CCn1ccc2ccccc21,-7.59%
8,Cc1nc(-c2cnn(C)c2)nc2c1CN(C(=O)c1cccn1C)CC2,1.91%
9,N#Cc1ccc(NC(=O)C2CSCN2)cc1 (centres undefined),-6.81%
10,CC(Nc1ccc(CCN2CCOCC2)cc1)C(=O)N(C)CCC#N (centres undefined),9.3%
11,O=C(c1ccccn1)N1CCc2c(nc(N3CCCC3)[nH]c2=O)C1,-1.38%
12,CS(=O)(=O)Cc1ccc(CNc2ncc(C#N)cc2Cl)cc1,1.58%
13,CNC(=O)NC1CC2(CCNCC2)c2ccc(C)cc21 (centres undefined),18.2%
14,Cc1ccc(NC2CCN(C(=O)c3ccsc3)CC2)nn1,-3.84%
15,CC(C)CC(=O)N1CC[C@H]2C[C@H](c3nccs3)O[C@@H]2C1,2.63%
16,O=c1c2ccccc2nc2n1CCN(Cc1cccs1)CC2,-16.1%
17,COc1cccc([C@H]2CN(C(=O)c3cc(C)on3)C[C@@H]2N)c1,-10.9%
18,CCc1ccccc1OCCN(C)C(=O)CCN1CCCO1,-3.75%
19,Cc1ccccc1C(=O)NCC(=O)NCc1ccccn1,15.5%
20,Cc1ncc(C)c(N2CCC(CCc3ccccc3)(C(=O)O)CC2)n1,-10.1%
21,CCOc1cccc2c1OCC(C(=O)NS(=O)(=O)c1cccs1)=C2,-9.43%
22,CN(C)CCN(C)C[C@@H]1CN(Cc2cccc(O)c2)C[C@@H]1CO,-3.65%
